# In patent publication US8410302B2, “Methoxyimino compounds and fungicide composition comprising same” (Kyung Nong Corporation, priority 2007, dated 2013):
# Like-named read-outs stand apart in the source and are kept apart here.
# Columns and labels:
# Botrytis cinerae = assay: Fungicidal activity against cucumber gray mold rot (CGM) disease, control value; assay type: in vivo; conditions: 100 ppm; for pest or weed control at 100 ppm: Botrytis, read-out: CGM control value (C.V.)
# Procedure: Botrytis cinerae, which was isolated from cucumber infected thereby, was inoculated on a potato agar medium (PEC) and cultured under a 12L/12D cycle at 25° C. for 15 days to form spore. The spores were scraped, filtered through a gauze and then suspended in Potato Dextrose broth at a concentration of 1×10^6 spore/ml. The spore suspension was sprayed on a cucumber plant having one leaf. The cucumber plant was held in a humidified room at 20° C. for 3 days. L.A. on a leaf was measured to calculate a C.V.
# Rhizoctonia solani AG-1 = assay: Fungicidal activity against rice sheath blight (RSB) disease, control value; conditions: for pest or weed control at 2 ppm / pest or weed control at 10 ppm / pest or weed control at 50 ppm / pest or weed control at 100 ppm: Rhizoctonia solani, AG1, in Oryza sativa, read-out: RSB control value (C.V.); for RSB control value (C.V.): 100 ppm, rice sheath blight
# Phytophthora infestans = assay: whole plant or invertebrate; assay type: in vivo; conditions: for pest or weed control at 2 ppm / pest or weed control at 10 ppm / pest or weed control at 50 ppm / pest or weed control at 100 ppm: Phytophthora infestans, in Solanum lycopersicum, read-out: TLB control value (C.V.); for TLB control value (C.V.): tomato late blight
# Erysiphae graminis = assay: Fungicidal activity against barley powdery mildew (BPM) disease, control value; assay type: in vivo; conditions: for pest or weed control at 2 ppm / pest or weed control at 10 ppm / pest or weed control at 50 ppm / pest or weed control at 100 ppm: 168 h, read-out: BPM control value (C.V.)
# [1] = tested on: Pyricularia oryzae Carvara KA301; assay: whole plant or invertebrate; assay type: in vivo; conditions: for pest or weed control at 2 ppm / pest or weed control at 10 ppm / pest or weed control at 50 ppm / pest or weed control at 100 ppm: Pyricularia oryzae, read-out: RCB control value (C.V.); for RCB control value (C.V.): rice blast
# Puccinia recondita = assay: Fungicidal activity against wheat leaf rust (WLR) disease, control value; assay type: in vivo; conditions: for pest or weed control at 2 ppm / pest or weed control at 10 ppm / pest or weed control at 50 ppm / pest or weed control at 100 ppm: read-out: WLR control value (C.V.)
# [2] = Hordeum vulgare, 2 ppm, barley powdery mildew
# [3] = Hordeum vulgare, 10 ppm, barley powdery mildew
# [4] = Hordeum vulgare, 50 ppm, barley powdery mildew
# [5] = Hordeum vulgare, 100 ppm, barley powdery mildew
SMILES,pest or weed control at 100 ppm (Botrytis cinerae; cucumber gray mold rot) [%],pest or weed control at 2 ppm (Rhizoctonia solani AG-1) [%],pest or weed control at 10 ppm (Rhizoctonia solani AG-1) [%],pest or weed control at 50 ppm (Rhizoctonia solani AG-1) [%],pest or weed control at 100 ppm (Rhizoctonia solani AG-1) [%],pest or weed control at 2 ppm (Phytophthora infestans) [%],pest or weed control at 10 ppm (Phytophthora infestans) [%],pest or weed control at 50 ppm (Phytophthora infestans) [%],pest or weed control at 100 ppm (Phytophthora infestans) [%],pest or weed control at 2 ppm (Erysiphae graminis; [2]) [%],pest or weed control at 10 ppm (Erysiphae graminis; [3]) [%],pest or weed control at 50 ppm (Erysiphae graminis; [4]) [%],pest or weed control at 100 ppm (Erysiphae graminis; [5]) [%],pest or weed control at 2 ppm [1] [%],pest or weed control at 10 ppm [1] [%],pest or weed control at 50 ppm [1] [%],pest or weed control at 100 ppm [1] [%],"pest or weed control at 2 ppm (Puccinia recondita; 2 ppm, wheat leaf rust) [%]","pest or weed control at 50 ppm (Puccinia recondita; 50 ppm, wheat leaf rust) [%]","pest or weed control at 100 ppm (Puccinia recondita; 100 ppm, wheat leaf rust) [%]",also measured
"CO/N=C(/C(=O)OC)c1ccccc1COc1c(C)cccc1C=C(Cl)Cl [Example 49, methyl-(E)-2-(2-((2-(2,2-dichlorovinyl)-6-methylphenoxy)methyl)phenyl)-2-methoxyiminoacetate]",30,95,98,100,100,97,99,100,100,100,100,100,100,93,100,100,100,100,100,100,"pest or weed control at 10 ppm (Puccinia recondita; 10 ppm, wheat leaf rust): 100%"
"CNC(=O)/C(=N/OC)c1ccccc1COc1cccc(C=C(Cl)Br)c1 [Example 16, (2E)-2-(2-((3-(2-bromo-2-chlorovinyl)phenoxy)methyl)phenyl)-2-methoxyimino-N-methylacetamide]",65,95,98,100,100,93,95,100,100,100,100,100,100,100,100,100,100,100,100,100,"pest or weed control at 10 ppm (Puccinia recondita; 10 ppm, wheat leaf rust): 100%"
"CO/N=C(/C(=O)OC)c1ccccc1COc1ccc(C=C(Br)Br)c(Cl)c1 [Example 81, methyl-(E)-2-(2-((4-(2,2-dibromovinyl)-3-chlorophenoxy)methyl)phenyl)-2-methoxyiminoacetate]",,55,98,100,100,60,90,98,100,,,,,70,90,100,100,,,,"pest or weed control at 100 ppm (Botrytis cinerae): 60%; pest or weed control at 2 ppm (Erysiphae graminis; 2 ppm): 98%; pest or weed control at 10 ppm (Erysiphae graminis; 10 ppm): 100%; pest or weed control at 50 ppm (Erysiphae graminis; 50 ppm): 100%; pest or weed control at 100 ppm (Erysiphae graminis; 100 ppm): 100%; pest or weed control at 2 ppm (Puccinia recondita; Puccinia recondita, 2 ppm): 95%; pest or weed control at 10 ppm (Puccinia recondita; Puccinia recondita, 10 ppm): 100%; pest or weed control at 50 ppm (Puccinia recondita; Puccinia recondita, 50 ppm): 100%; pest or weed control at 100 ppm (Puccinia recondita; Puccinia recondita, 100 ppm): 100%"
"CNC(=O)/C(=N/OC)c1ccccc1COc1cc(C=C(Cl)Cl)ccc1OC [Example 48, (E)-2-(2-((5-(2,2-dichlorovinyl)-2-methoxyphenoxy)methyl)phenyl)-2-methoxyimino-N-methylacetamide]",50,95,98,100,100,70,99,100,100,99,100,100,100,90,100,100,100,100,100,100,"pest or weed control at 10 ppm (Puccinia recondita; 10 ppm, wheat leaf rust): 100%"
"CO/N=C(/C(=O)OC)c1ccccc1COc1ccc(C=C(F)F)cc1 [Example 9, methyl-(E)-2-(2-((4-(2,2-difluorovinyl)phenoxy)methyl)phenyl)-2-methoxyiminoacetate]",50,,,,10,100,100,100,100,15,60,93,100,100,100,100,100,100,100,100,"pest or weed control at 10 ppm (Puccinia recondita; 10 ppm, wheat leaf rust): 100%"
"CO/N=C(/C(=O)OC)c1ccccc1COc1ccc(C=C(Br)Br)cc1Br [Example 77, methyl-(E)-2-(2-((2-bromo-4-(2,2-dibromovinyl)phenoxy)methyl)phenyl)-2-methoxyiminoacetate]",,65,98,100,100,70,90,98,100,,,,,30,90,100,100,,,,"pest or weed control at 100 ppm (Botrytis cinerae): 70%; pest or weed control at 2 ppm (Erysiphae graminis; 2 ppm): 90%; pest or weed control at 10 ppm (Erysiphae graminis; 10 ppm): 100%; pest or weed control at 50 ppm (Erysiphae graminis; 50 ppm): 100%; pest or weed control at 100 ppm (Erysiphae graminis; 100 ppm): 100%; pest or weed control at 2 ppm (Puccinia recondita; Puccinia recondita, 2 ppm): 95%; pest or weed control at 10 ppm (Puccinia recondita; Puccinia recondita, 10 ppm): 100%; pest or weed control at 50 ppm (Puccinia recondita; Puccinia recondita, 50 ppm): 100%; pest or weed control at 100 ppm (Puccinia recondita; Puccinia recondita, 100 ppm): 100%"
"CNC(=O)/C(=N/OC)c1ccccc1COc1cccc(C=C(F)Cl)c1 [Example 12, (2E)-2-(2-((3-(2-chloro-2-difluorovinyl)phenoxy)methyl)phenyl)-2-methoxyimino-N-methylacetamide]",,,,,,,,,,,,,,,,,,,,,"CGM control value (C.V.) (Botrytis cinerae; cucumber gray mold rot): 40%; RSB control value (C.V.) (Rhizoctonia solani AG-1): 15%; TLB control value (C.V.) (Phytophthora infestans; 50 ppm): 55%; TLB control value (C.V.) (Phytophthora infestans; 100 ppm): 93%; BPM control value (C.V.) (Erysiphae graminis; 100 ppm, barley powdery mildew): 80%; RCB control value (C.V.) ([1]; 50 ppm): 90%; RCB control value (C.V.) ([1]; 100 ppm): 97%; WLR control value (C.V.) (Puccinia recondita; 100 ppm, wheat leaf rust): 82%"
"CO/N=C(/C(=O)OC)c1ccccc1CON=C(C)c1cccc(C=C(Cl)Cl)c1 [Example 19, methyl-(E)-2-[[[[[2-[3-(2,2-dichlorovinyl)phenyl](1-methyl)methylidene]amino]oxy]methyl]phenyl]-2-methoxyiminoacetate]",,,,,,,,,,,,,,,,,,,,,"CGM control value (C.V.) (Botrytis cinerae; cucumber gray mold rot): 59%; RSB control value (C.V.) (Rhizoctonia solani AG-1): 80%; TLB control value (C.V.) (Phytophthora infestans; 2 ppm): 80%; TLB control value (C.V.) (Phytophthora infestans; 10 ppm): 92%; TLB control value (C.V.) (Phytophthora infestans; 50 ppm): 100%; TLB control value (C.V.) (Phytophthora infestans; 100 ppm): 100%; BPM control value (C.V.) (Erysiphae graminis; 2 ppm, barley powdery mildew): 100%; BPM control value (C.V.) (Erysiphae graminis; 10 ppm, barley powdery mildew): 100%; BPM control value (C.V.) (Erysiphae graminis; 50 ppm, barley powdery mildew): 100%; BPM control value (C.V.) (Erysiphae graminis; 100 ppm, barley powdery mildew): 100%; RCB control value (C.V.) ([1]; 2 ppm): 98%; RCB control value (C.V.) ([1]; 10 ppm): 100%; RCB control value (C.V.) ([1]; 50 ppm): 100%; RCB control value (C.V.) ([1]; 100 ppm): 100%; WLR control value (C.V.) (Puccinia recondita; 2 ppm, wheat leaf rust): 98%; WLR control value (C.V.) (Puccinia recondita; 10 ppm, wheat leaf rust): 100%; WLR control value (C.V.) (Puccinia recondita; 50 ppm, wheat leaf rust): 100%; WLR control value (C.V.) (Puccinia recondita; 100 ppm, wheat leaf rust): 100%"
"CO/N=C(/C(=O)OC)c1ccccc1COc1ccc(C=C(F)Cl)cc1 [Example 13, methyl-(2E)-2-(2-((4-(2-chloro-2-fluorovinyl)phenoxy)methyl)phenyl)-2-methoxyiminoacetate]",0,,,,67,,,,60,,,,75,,,70,95,,40,90,
